Experimental data as given in patent US9365851B2, “Spalt-like transcription factor 4 (SALL4) and uses thereof” (National University of Singapore, priority 2011, dated 2016).

What was measured:
[1] = system: SALL4 interaction with HDAC1; experiment: Co-immunoprecipitation of endogenous SALL4 with HDAC1 after peptide treatment (SNU-398); format: binding, human; conditions: SNU-398, anti-SALL4 IP
From the text: (§1) FIGS. 9A-9E: The wild type peptide blocks SALL4 repression of PTEN. (9A) Flow cytometry analysis on SNU-398 cells treated with Pep-1 carrier peptide alone (top panel), wild type peptide alone (middle panel), or Pep-1 carrier+peptide (lower panel). […] (9B) Confocal images of the distribution of FITC-labeled peptide in SNU-398 cells treated as shown in (9A). (9C) The endogenous SALL4 interaction with HDAC is blocked by wild type (wt) but not scrambled (scr) peptide. SALL4 was immunoprecipitated from SNU-398 nuclear extracts (1×10^6 cells) pre-treated with wild type or scrambled peptides as indicated using an anti-SALL4 antibody. Immunoprecipitates were analyzed by Western blot using HDAC1 (top panel) or SALL4 (lower panel) antibodies. […] Equal amount of SALL4 protein was present in all samples. In Lane 4 (“10% input”), 10% of the amount of nuclear extract used in lanes 1-3 was subjected to Western blot analysis without immunoprecipitation. […] Enrichment with control IgG was set at 1.
Furthermore, whether wt peptide can compete with endogenous SALL4 in interacting with HDAC1 was tested. SNU-398 cells were treated with wt or Scr peptides. […] This effect was not observed with the SNU-398 cells treated with Scr peptide and HDAC1 was still present in the endogenous SALL4 pull-down (FIG. 2).
Next tested was whether wild type peptide could compete for the interaction of endogenous SALL4 with HDAC1. SNU-398 cells were treated with wild type or scrambled peptides along with the peptide carrier Pep-1.

PTEN promoter region = experiment: ChIP-qPCR of H3 acetylation at the PTEN promoter in SNU-398 cells; format: cell-based, human; conditions: SNU-398, ChIP-qPCR
From the text: as §1
Whether this peptide can reverse the repressive effect of SALL4 on its target genes was then tested. Pten was chosen as an example since it is one of genes implicated in SALL4-mediated leukemogenesis. In addition, it was previously reported that SALL4 and NuRD component HDAC2 shared the same binding site at a specific Pten promoter region identified by a ChIP assay. When SALL4 was overexpressed in 293T cells, an enrichment of SALL4 as well as HDAC2 but a decreased H3 acetylation at this binding site were observed, which was correlated with a decreased Pten mRNA expression. It is likely that SALL4 recruits the NuRD complex in repressing Pten expression. If this model of the role of wt peptide is correct, then it could compete with endogenous SALL4 in recruiting NuRD to the binding site on Pten promoter. […] SNU-398 cells were treated with Scr or wt peptide and then evaluated for the Pten mRNA expression, as well as the status of HDAC2 binding and H3 acetylation at the Pten promoter region.
Then tested was whether this peptide could reverse the repressive effect of SALL4 on its target genes. The focus was onPTEN, since it is implicated in SALL4-mediated leukemogenesis (Yang et al., Blood, 112:805-813 (2008); Lu et al., PLoS One, 4:e5577 (2009)). In addition, it was previously reported that SALL4 could specifically bind to the PTEN promoter region in a chromatin immunoprecipitation (ChIP) assay (Lu et al., PLoS One, 4:e5577 (2009)). […] To test this possibility, SNU-398 cells were treated with scrambled or wild type peptide and subsequently evaluated for PTEN expression and H3 acetylation at the SALL4 binding site at the PTEN promoter region. […]

Substance	interaction of endogenous SALL4 with HDAC1 [1]	H3 acetylation at the PTEN promoter region (PTEN promoter region; listed as Wild type peptide)	H3 acetylation at the PTEN promoter region (PTEN promoter region; listed as Wt)	H3 acetylation at the PTEN promoter region (PTEN promoter region; listed as wild type peptide)	interaction of endogenous SALL4 with HDAC1 ([1]; listed as scrambled peptide)	H3 acetylation at the PTEN promoter region (PTEN promoter region)
H-MSRRKQAKPQHI-OH [wt peptide, MSRRKQAKPQHI]	completely abrogated	increased H3 acetylation	increased H3 acetylation	increased H3 acetylation markers	–	–
Scr peptide: same 12 amino acids as the wt peptide, but in a scrambled sequence; negative control (SRMRQKIHPKIQ) [reference compound]	not observed	–	–	–	does not affect the interaction	not observed
